Target: T1, human FXR (NR1H4) (Homo sapiens, UniProt Q96RI1)
T1 construct: host or cells: CHO (Chinese hamster ovary) reporter cells
T1 sequence (Q96RI1 1-486): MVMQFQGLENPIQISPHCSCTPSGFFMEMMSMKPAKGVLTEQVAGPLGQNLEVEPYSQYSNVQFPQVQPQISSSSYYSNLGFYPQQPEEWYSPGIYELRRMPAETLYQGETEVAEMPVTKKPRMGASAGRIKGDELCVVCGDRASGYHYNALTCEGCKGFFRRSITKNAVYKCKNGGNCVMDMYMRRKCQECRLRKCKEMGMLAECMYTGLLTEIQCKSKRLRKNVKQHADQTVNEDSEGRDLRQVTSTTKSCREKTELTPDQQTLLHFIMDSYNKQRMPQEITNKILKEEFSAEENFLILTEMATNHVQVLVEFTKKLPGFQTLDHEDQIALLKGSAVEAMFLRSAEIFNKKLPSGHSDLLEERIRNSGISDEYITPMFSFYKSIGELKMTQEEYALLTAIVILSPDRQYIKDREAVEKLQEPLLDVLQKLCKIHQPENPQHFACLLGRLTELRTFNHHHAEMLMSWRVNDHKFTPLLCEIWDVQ
Test: Human FXR (NR1H4) Assay (Gal4 promoter driven luciferase reporter assay in CHO cells)
Assay type: cell-based
Conditions: for EC50: CHO cells expressing human NR1H4, 22 hours incubation, potency ranges; for Emax: efficacy normalized to CDCA set as 100%, CHO cells expressing human NR1H4
From the text: Determination of a ligand mediated Gal4 promoter driven transactivati on to quantify ligand binding mediated activation of FXR. FXR Reporter Assay kit purchased from Indigo Bioscience (Catalogue number: IB00601) to determine the potency and efficacy of compound developed by Enanta that can induce FXR activation. The principle application of this reporter assay system is to quantify functional activity of human FXR. The assay utilizes non-human mammalian cells, CHO (Chinese hamster ovary) cells engineered to express human NR1H4 protein (referred to as FXR). Reporter cells also incorporate the cDNA encoding beetle luciferase which catalyzes the substrates and yields photon emission. Luminescence intensity of the reaction is quantified using a plate-reading luminometer, Envision. Reporter Cells include the luciferase reporter gene functionally linked to an FXR responsive promoter. Thus, quantifying changes in luciferase expression in the treated reporter cells provides a sensitive surrogate measure of the changes in FXR activity. EC50 and efficacy (normalize to CDCA set as 100%) is determined by XLFit. The assay is according to the manufacturer's instructions. In brief, the assay was performed in white, 96 well plates using final volume of 100 ul containing cells with different doses of compounds. Retrieve Reporter Cells from −80° C. storage. Perform a rapid thaw of the frozen cells by transferring a 10 ml volume of 37° C. cell recovery medium into the tube of frozen cells. Recap the tube of Reporter Cells and immediately place it in a 37° C. water bath for 5-10 minutes. Retrieve the tube of Reporter Cell Suspension from the water bath. Sanitize the outside surface of the tube with a 70% alcohol swab, and then transfer it into the cell culture hood. Dispense 90 μl of cell suspension into each well of the 96-well Assay Plate. Transfer the plate into 37° C. incubator, allowing the cells adherent to the bottom of the well. Dilute compounds in Dilution Plate (DP), and administrate to cells at Assay Plate (AP). DMSO content of the samples was kept at 0.2%. Cells were incubated for additional 22 hours before luciferase activities were measured. Thirty minutes before intending to quantify FXR activity, remove Detection Substrate and Detection Buffer from the refrigerator and place them in a low-light area so that they may equilibrate to room temperature. Remove the plate's lid and discard all media contents by ejecting it into an appropriate waste container. Gently tap the inverted plate onto a clean absorbent paper towel to remove residual droplets. Cells will remain tightly adhered to well bottoms. Add 100 μl of luciferase detection reagent to each well of the assay plate. Allow the assay plate to rest at room temperature for at least 5 minutes following the addition of LDR. Set the instrument (Envision) to perform a single 5 second “plate shake” prior to reading the first assay well. Read time may be 0.5 second (500 mSec) per well. EC50 and Efficacy (normalize to CDCA set as 100%) is determined by XLFit.
The efficacy was normalized to CDCA set as 100%. (A=EC50<0.1 μM; B=0.1 μM<EC50<1.0 μM; C=1.0 μM<EC50<10 μM; D=EC50>10 μM).

EC50	Emax	SMILES
< 100 nM	96%	CC(C)Oc1cc(C(=O)O)cc2sc(N(C)[C@@H]3CC[C@H](OCc4c(-c5c(Cl)cccc5Cl)noc4C4CC4)C3)nc12 [Example 1]
< 100 nM	75%	CC(C)Oc1cc(C(=O)O)cc2sc(N(C)[C@H]3CC[C@@H](OCc4c(-c5c(Cl)cccc5Cl)noc4C4CC4)C3)nc12 [Example 2]
100 to 1000 nM	58%	CC(C)Oc1cc(C(=O)O)cc2sc(N(C)[C@H]3CC[C@H](OCc4c(-c5c(Cl)cccc5Cl)noc4C4CC4)C3)nc12 [Example 3]
< 100 nM	85%	CC(C)Oc1cc(C(=O)O)cc2sc(N(C)[C@H]3CC[C@H](OCc4c(-c5c(Cl)cccc5Cl)noc4C4CC4)CC3)nc12 [Example 5]
< 100 nM	104%	O=C(O)c1cc(F)c2nc(N[C@@H]3CC[C@H](OCc4c(-c5c(Cl)cccc5Cl)noc4C4CC4)C3)sc2c1 [Example 9]
< 100 nM	81%	O=C(O)c1cc(F)c2nc(N[C@@H]3CCC(OCc4c(-c5ccccc5OC(F)(F)F)noc4C4CC4)C3)sc2c1 (stereo partly drawn) [Example 10]
< 100 nM	65%	CC(C)Oc1cc(C(=O)O)cc2sc(N(C)[C@H]3CC[C@@H](OCc4c(-c5c(Cl)cccc5Cl)noc4C4CC4)CC3)nc12 [Example 15, 2-(((1s,4s)-4-((5-cyclopropyl-3-(2,6-dichlorophenyl)isoxazol-4-yl)methoxy)cyclohexyl)(methyl)amino)-4-isopropoxybenzo[d]thiazole-6-carboxylic acid]
< 100 nM	91%	CC(C)Oc1cc(C(=O)O)cc2sc(N[C@H]3CC[C@@H](OCc4c(-c5ccccc5OC(F)(F)F)noc4C4CC4)CC3)nc12 [Example 17]
< 100 nM	52%	O=C(O)c1ccc2nc(N[C@H]3CC[C@@H](OCc4c(-c5c(Cl)cccc5Cl)noc4C4CC4)CC3)sc2c1 [Example 18]
100 to 1000 nM	111%	CC(C)Oc1cc(C(=O)NS(=O)(=O)C2CC2)cc2sc(N[C@@H]3CCC(OCc4c(-c5c(Cl)cccc5Cl)noc4C4CC4)C3)nc12 (stereo partly drawn) [Example 20]

More lines, now with the values behind:

SMILES	EC50	Emax
CC(C)Oc1cc(C(=O)O)cc2sc(N(C)[C@@H]3CC[C@@H](OCc4c(-c5c(Cl)cccc5Cl)noc4C4CC4)C3)nc12 [Example 4]	100 to 1000 nM	73%
CC(C)Oc1cc(C(=O)O)cc2sc(N(C)[C@@H]3CC[C@H](OCc4c(-c5ccccc5OC(F)(F)F)noc4C4CC4)C3)nc12 [Example 6]	< 100 nM	67%
CN(c1ccc2cc(C(=O)O)ccc2n1)[C@@H]1CC[C@H](OCc2c(-c3ccccc3OC(F)(F)F)noc2C2CC2)C1 [Example 7]	< 100 nM	57%
CC(C)Oc1cc(C(=O)O)cc2sc(N[C@@H]3CC[C@H](OCc4c(-c5c(Cl)cccc5Cl)noc4C4CC4)C3)nc12 [Example 8]	< 100 nM	99%
CC(C)Oc1cc(C(=O)O)cc2sc(N[C@@H]3CC[C@H](OCc4c(-c5ccccc5OC(F)(F)F)noc4C4CC4)C3)nc12 [Example 11]	< 100 nM	92%
CC(C)Oc1cc(C(=O)O)cc2sc(N[C@H]3CC[C@@H](OCc4c(-c5c(Cl)cccc5Cl)noc4C4CC4)CC3)nc12 [Example 14, 2-(((1s,4s)-4-((5-cyclopropyl-3-(2,6-dichlorophenyl)isoxazol-4-yl)methoxy)cyclohexyl)amino)-4-isopropoxybenzo[d]thiazole-6-carboxylic acid]	< 100 nM	84%
O=C(O)c1cc(F)c2nc(N[C@H]3CC[C@@H](OCc4c(-c5c(Cl)cccc5Cl)noc4C4CC4)CC3)sc2c1 [Example 16]	100 to 1000 nM	24%
O=C(O)c1ccc2nc(N[C@@H]3CCC(OCc4c(-c5c(Cl)cccc5Cl)noc4C4CC4)C3)sc2c1 (stereo partly drawn) [Example 19]	100 to 1000 nM	116%
